Each structure is given as a SMILES string. Counter-ions that a name gives are not always drawn.

This test concerns the target T1, TAK1-TAB1 fusion protein (Homo sapiens, UniProt O43318).
T1 construct: purchased Carna
T1 sequence (O43318 with tags, fused parts or gaps limits assumed): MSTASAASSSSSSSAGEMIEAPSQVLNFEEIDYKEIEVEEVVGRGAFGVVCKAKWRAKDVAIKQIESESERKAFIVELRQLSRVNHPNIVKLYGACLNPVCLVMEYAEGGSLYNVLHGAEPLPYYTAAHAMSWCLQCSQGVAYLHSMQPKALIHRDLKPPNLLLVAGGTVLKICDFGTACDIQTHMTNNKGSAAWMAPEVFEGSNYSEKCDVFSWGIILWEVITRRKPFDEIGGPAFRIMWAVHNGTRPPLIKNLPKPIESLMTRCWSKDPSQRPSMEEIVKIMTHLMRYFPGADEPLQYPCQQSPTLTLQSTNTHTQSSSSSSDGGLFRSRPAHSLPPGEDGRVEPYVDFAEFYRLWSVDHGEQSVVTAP
The test is described as follows: TAK1 biochemical assay (AlphaScreen, GST-MAP2K7 substrate). The note with it: TAK1-TAB1 fusion protein, GST-MAP2K7 substrate; read-out: mean TAK1 IC50 (Col. A).
On to `COC(=O)c1csc(-c2cnc(N)c3oc(-c4csc5cnccc45)cc23)c1` [Example 380, 5-(7-amino-2-thieno[2,3-c]pyridin-3-yl-furo[2,3-c]pyridin-4-yl)-thiophene-3-carboxylic acid methyl ester], for which the IC50 was 1 to 10 µM.

With `Nc1ncc(-c2cnn(C3CCNCC3)c2)c2cc(-c3ccc4[nH]c(=O)[nH]c4c3)oc12` [Example 25, 5-{7-amino-4-[1-(piperidin-4-yl)-1H-pyrazol-4-yl]furo[2,3-c]pyridine-2-yl}-1,3-dihydro-2H-benzimidazol-2-one], the IC50 was in the range of 1 to 10 µM. Under `Nc1ncc(-c2cnn(C3CCNCC3)c2)c2cc(-c3cccc4c3NC(=O)C4)oc12` [Example 44, 7-{7-amino-4-[1-(piperidin-4-yl)-1H-pyrazol-4-yl]furo[2,3-c]pyridine-2-yl}-1,3-dihydro-2H-indol-2-one] stands 1 to 10 µM; under `Nc1ncc(-c2cnn(C3CCNCC3)c2)c2cc(C3CCNCC3)oc12` [Example 54, 2-(piperidin-4-yl)-4-[1-(piperidin-4-yl)-1H-pyrazol-4-yl]furo[2,3-c]pyridin-7-amine], more than 10 µM; under `Nc1ncc(-c2cnn(C3CCNCC3)c2)c2cc(-c3cccc4cc[nH]c34)oc12` [Example 42, 2-(1H-indol-7-yl)-4-[1-(piperidin-4-yl)-1H-pyrazol-4-yl]furo[2,3-c]pyridin-7-amine], 0.1 to 1 µM. Under `CC(=O)N1CCC(n2cc(-c3cnc(N)c4oc(C5=CCC6(CC5)OCCO6)cc34)cn2)CC1` [Example 408, 1-(4-{4-[7-amino-2-(1,4-dioxaspiro[4.5]dec-7-en-8-yl)furo[2,3-c]pyridin-4-yl]-1H-pyrazol-1-yl}piperidin-1-yl)ethanone] stands more than 10 µM; under `CC(=O)N1CCC(n2cc(-c3cnc(N)c4oc(-c5ccc(CO)cc5)cc34)cn2)CC1` [Example 184, 1-[4-(4-{7-amino-2-[4-(hydroxymethyl)phenyl]furo[2,3-c]pyridin-4-yl}-1H-pyrazol-1-yl)piperidin-1-yl]ethanone], 1 to 10 µM. For the molecule `Nc1ncc(-c2cnn(C3CCNCC3)c2)c2cc(-c3cccc4cccnc34)oc12` [Example 32, 4-[1-(piperidin-4-yl)-1H-pyrazol-4-yl]-2-(quinolin-8-yl)furo[2,3-c]pyridine-7-amine], the half-maximal inhibitory concentration (IC50) lay in the range of 1 to 10 µM. The same measure for `CN(C)S(=O)(=O)Nc1cccc(-c2cc3c(-c4cnn(C5CCNCC5)c4)cnc(N)c3o2)c1` [Example 24, N′-(3-{7-amino-4-[1-(piperidin-4-yl)-1H-pyrazol-4-yl]furo[2,3-c]pyridine-2-yl}phenyl)-N,N-dimethylsulfuric diamide]: 1 to 10 µM; for `CC(=O)N1CCC(n2cc(-c3cnc(N)c4oc(-c5cccc6ccoc56)cc34)cn2)CC1` [Example 196, 1-(4-{4-[7-amino-2-(1-benzofuran-7-yl)furo[2,3-c]pyridin-4-yl]-1H-pyrazol-1-yl}piperidin-1-yl)ethanone]: more than 10 µM; for `CSc1nc2cccc(-c3cc4c(-c5cnn(C6CCN(C(C)=O)CC6)c5)cnc(N)c4o3)c2s1` [Example 352, 1-[4-(4-{7-amino-2-[2-(methylsulfanyl)-1,3-benzothiazol-7-yl]furo[2,3-c]pyridin-4-yl}-1H-pyrazol-1-yl)piperidin-1-yl]ethanone trifluoroacetate]: 1 to 10 µM.

Consider `Nc1ncc(-c2cnn([C@H]3CC[C@H](O)CC3)c2)c2cc(-c3cc(-c4cccc(F)c4)cc4nnsc34)oc12` [Example 369, trans-4-(4-{7-amino-2-[5-(3-fluorophenyl)-1,2,3-benzothiadiazol-7-yl]furo[2,3-c]pyridin-4-yl}-1H-pyrazol-1-yl)cyclohexanol], for which the 50% inhibitory concentration (IC50) was 1 to 10 µM.

Take `CC(=O)N1CCC(n2cc(-c3cnc(N)c4oc(-c5ccc(N6CCCC6)nc5)cc34)cn2)CC1` [Example 139, 1-[4-(4-{7-amino-2-[6-(pyrrolidin-1-yl)pyridin-3-yl]furo[2,3-c]pyridin-4-yl}-1H-pyrazol-1-yl)piperidin-1-yl]ethanone]: the IC50 was more than 10 µM. As to `Nc1ncc(-c2cnn(C3CCNCC3)c2)c2c(Cl)c(-c3ccccc3)oc12` [Example 12, 3-chloro-2-phenyl-4-[1-(piperidin-4-yl)-1H-pyrazol-4-yl]furo[2,3-c]pyridin-7-amine hydrochloride], the concentration for half-maximal inhibition (IC50) lay within 0.1 to 1 µM. The same measure for `Nc1ncc(-c2cnn([C@H]3CC[C@H](O)CC3)c2)c2cc(-c3ccc4cn[nH]c4c3)oc12` [Example 406, trans-4-{4-[7-amino-2-(1H-indazol-6-yl)furo[2,3-c]pyridin-4-yl]-1H-pyrazol-1-yl}cyclohexanol]: 0.1 to 1 µM; for `Nc1ncc(-c2cnn(C3CCNCC3)c2)c2cc(-c3cccc(OC(F)(F)F)c3)oc12` [Example 22, 4-[1-(piperidin-4-yl)-1H-pyrazol-4-yl]-2-[3-(trifluoromethoxy)phenyl]furo[2,3-c]pyridine-7-amine]: more than 10 µM. Under `COc1cccc2cc(C=CC(=O)N3CCC(n4cc(-c5cnc(N)c6oc(-c7csc8cnccc78)cc56)cn4)CC3)oc12` [Example 333, 1-{4-[4-(7-amino-2-thieno[2,3-c]pyridin-3-yl-furo[2,3-c]pyridin-4-yl)-pyrazol-1-yl]-piperidin-1-yl}-3-(7-methoxy-benzo-furan-2-yl)-propenone] stands 0.1 to 1 µM; under `CC(=O)Nc1ccccc1-c1cc2c(-c3cnn(C4CCN(C(C)=O)CC4)c3)cnc(N)c2o1` [Example 141, N-(2-{4-[1-(1-acetylpiperidin-4-yl)-1H-pyrazol-4-yl]-7-aminofuro[2,3-c]pyridin-2-yl}phenyl)acetamide], more than 10 µM; under `Nc1ncc(-c2cnn(C3CCNCC3)c2)c2cc(-c3ccc4cc[nH]c4c3)oc12` [Example 29, 2-(1H-indol-6-yl)-4-[1-(piperidin-4-yl)-1H-pyrazol-4-yl]furo[2,3-c]pyridin-7-amine], 1 to 10 µM. Turning to `Cc1nn([C@H]2CC[C@H](O)CC2)cc1-c1cnc(N)c2oc(-c3csc4cnccc34)cc12` [Example 304, 4-[4-(7-amino-2-thieno[2,3-c]pyridin-3-yl-furo[2,3-c]pyridin-4-yl)-3-methyl-pyrazol-1-yl]-cyclohexanol], the concentration for half-maximal inhibition (IC50) lay in the range of 1 to 10 µM. The same measure for `CC(=O)N1CCC(n2cc(-c3cnc(N)c4oc(-c5ccc(OC(F)(F)F)cc5)cc34)cn2)CC1` [Example 173, 1-[4-(4-{7-amino-2-[4-(trifluoromethoxy)phenyl]furo[2,3-c]pyridin-4-yl}-1H-pyrazol-1-yl)piperidin-1-yl]ethanone]: more than 10 µM; for `CC(=O)N1CCC(n2cc(-c3cnc(N)c4oc(-c5ccccc5C(N)=O)cc34)cn2)CC1` [Example 172, 2-{4-[1-(1-acetylpiperidin-4-yl)-1H-pyrazol-4-yl]-7-aminofuro[2,3-c]pyridin-2-yl}benzamide]: 1 to 10 µM; for `CC(=O)N1CCC(n2cc(-c3cnc(N)c4oc(-c5ccnc6cc(Cl)ccc56)cc34)cn2)CC1` [Example 409, 1-(4-{4-[7-amino-2-(7-chloroquinolin-4-yl)furo[2,3-c]pyridin-4-yl]-1H-pyrazol-1-yl}piperidin-1-yl)ethanone]: 1 to 10 µM. `Nc1ncc(-c2cnn(C3CCNCC3)c2)c2cc(-c3cccc(-c4nnn[nH]4)c3)oc12` [Example 40, 4-[1-(piperidin-4-yl)-1H-pyrazol-4-yl]-2-[3-(1H-tetrazol-5-yl)phenyl]furo[2,3-c]pyridine-7-amine]: the half-inhibitory concentration (IC50) was 1 to 10 µM. The same measure for `CC(C)Oc1cccc(/C=C/C(=O)N2CCC(n3cc(-c4cnc(N)c5oc(-c6cccc7cnsc67)cc45)cn3)CC2)c1` [Example 337, (E)-1-{4-[4-(7-amino-2-benzo[d]isothiazol-7-yl-furo[2,3-c]pyridin-4-yl)-pyrazol-1-yl]-piperidin-1-yl}-3-(3-isopropoxy-phenyl)-propenone]: 1 to 10 µM; for `COc1ccc(COc2cccc(-c3cc4c(-c5cnn(C6CCN(C(C)=O)CC6)c5)cnc(N)c4o3)c2)cc1` [Example 182, 1-{4-[4-(7-amino-2-{3-[(4-methoxybenzyl)oxy]phenyl}furo[2,3-c]pyridin-4-yl)-1H-pyrazol-1-yl]piperidin-1-yl}ethanone]: 1 to 10 µM; for `CC(=O)N1CCC(n2cc(-c3cnc(N)c4oc(-c5ccc([N+](=O)[O-])nc5)cc34)cn2)CC1` [Example 119, 1-(4-{4-[7-amino-2-(6-nitropyridin-3-yl)furo[2,3-c]pyridin-4-yl]-1H-pyrazol-1-yl}piperidin-1-yl)ethanone]: 1 to 10 µM. The same measure for `Nc1ncc(-c2cnn(C3CCNCC3)c2)c2cc(-c3cccc4c3Sc3ccccc3S4)oc12` [Example 35, 4-[1-(piperidin-4-yl)-1H-pyrazol-4-yl]-2-(thianthren-1-yl)furo[2,3-c]pyridine-7-amine]: 1 to 10 µM. The same measure for `CC(=O)N1CCC(n2cc(-c3cnc(N)c4oc(-c5ccc(-c6ccn[nH]6)cc5)cc34)cn2)CC1` [Example 128, 1-[4-(4-{7-amino-2-[4-(1H-pyrazol-5-yl)phenyl]furo[2,3-c]pyridin-4-yl}-1H-pyrazol-1-yl)piperidin-1-yl]ethanone]: 1 to 10 µM; for `Nc1ncc(-c2cnn([C@H]3CC[C@H](O)CC3)c2)c2cc(-c3ccc4c(c3)CC(=O)N4)oc12` [Example 405, 5-{7-amino-4-[1-(trans-4-hydroxycyclohexyl)-1H-pyrazol-4-yl]furo[2,3-c]pyridin-2-yl}-1,3-dihydro-2H-indol-2-one]: 1 to 10 µM. As for `CC(=O)N1CCC(n2cc(-c3cnc(N)c4oc(-c5ccc6c(c5)C(=O)NC6=O)cc34)cn2)CC1` [Example 100, 5-{4-[1-(1-acetylpiperidin-4-yl)-1H-pyrazol-4-yl]-7-aminofuro[2,3-c]pyridin-2-yl}-1H-isoindole-1,3(2H)-dione], the IC50 fell in the range of 1 to 10 µM.

Values taken from patent US8378104B2 (OSI Pharmaceuticals, LLC, priority 2010, dated 2013).
